Laboratory results taken from patent publication US10669270B2, “Amide-sulfamide derivatives, compositions, and uses related to CXCR4 inhibition” (Emory University, priority 2016, dated 2020).
“Also recorded” adds a separate entry of the source.

Experiments:
CXCR4 = biological target: T1, CXCR4 (Homo sapiens, UniProt P61073); assay: Primary binding affinity screening (competition with biotinylated TN14003 on MDA-MB-231 cells); details: for potency compared with AMD3100: EC relative to AMD3100; for EC: MDA-MB-231 cells, compounds at 1, 10, 100, or 1000 nM, biotinylated TN14003
T1 construct: endogenous in cells; host or cells: MDA-MB-231
Procedure: For binding affinity assay, 2×10^4 MDA-MB-231 cells in 300 μL of cell culture medium were seeded in an 8-well slide chamber 2 days before the experiments were conducted. Various concentrations of different compounds (1, 10, 100, or 1000 nM) were added to the separate wells and incubated for 10 minutes at room temperature, and then the cells were fixed in 4% ice-cold paraformaldehyde. The cells were rehydrated in phosphate-buffered saline (PBS). The slides were subsequently incubated for 30 minutes at room temperature with 0.05 μg/mL biotinylated TN14003, washed three times with PBS, and incubated in streptavidin-rhodamine (1:150 dilution; Jackson ImmunoResearch Laboratories, West Grove, Pa.) for 30 minutes at room temperature. Finally, the slides were washed with PBS and mounted in an anti-fade mounting solution (Molecular Probes, Eugene, Oreg.), and the samples were analyzed on a Nikon Eclipse E800 microscope.

MDA-MB-231 cells [1] = assay: Matrigel invasion assay; format: cell-based; details: compounds 100 nM; CXCL12α 200 ng/mL; 22 hours
Procedure: Matrigel invasion assay was performed by using a Matrigel invasion chamber from Corning Biocoat (Bedford, Mass.). CXCL12α(200 ng/mL; R & D Systems, Minneapolis, Minn.) was added to the bottom chamber to induce the invasion of MDA-MB-231 cells through the Matrigel. The selected compounds (100 nM) or AMD3100 were added to the cells before the cells were seeded in the top chamber. The Matrigel invasion chamber was incubated for 22 hours in a humidified cell culture incubator. First, non-invading cells were removed from the top of the Matrigel with a cotton-tipped swab. Invading cells on the filter at the bottom of the Matrigel were fixed in methanol and stained with hematoxylin and eosin (H & E). The percent of invasion was determined by counting the H&E stained cellc.

xylene-induced ear edema = assay: Xylene-induced ear inflammation suppression test; format: in vivo, mice; details: for inflammation suppression (mouse ear edema): 10 mg/kg i.p., 30 minutes after xylene, sacrificed 2 hours later; for histological analysis of ear: ear damage, edema, inflammatory cells
Procedure: Five mice per group were used to determine the effect of the CXCR4 modulators. The inner and outer surfaces of the right ear of each mouse were treated with a total 30 μL of xylene for the induction of ear edema, whereas the left ear was treated with 30 μL of saline, which was used as a non-inflammation control. The selected compounds were dissolved in 10% DMSO and 90% of 45% (2-hydroxypropyl)-β-cyclodextrin (CD) in PBS. Thirty minutes after the application of xylene, 14 selected compounds were administered intraperitoneally (i.p.) at 10 mg/kg. Control animals received corresponding i.p. injections of the vehicle. The animals were sacrificed 2 hours later, and two ear plugs (7 mm in diameter) were removed from both the treated ear and the untreated ear. Weights of treated and untreated ear plugs were measured. The difference in weight of the two ear plugs was taken as a measure of edematous response. The inflammation-suppression percentage was calculated by comparing the drug-treated group to the control group.

MDA-MB-231 cells [2] = assay: Cytotoxicity screening, MDA-MB-231; format: cell-based; details: at 10 μM
[3] = system: CXCR4/CXCL12-mediated Akt phosphorylation; assay: Western blot analysis of Akt phosphorylation; format: cell-based
Procedure: Forty micrograms of protein were separated by SDS-PAGE and transferred to a PVDF membrane (Bio-Rad, Hercules, Calif., USA). The membrane was blocked for 30 min in a blocking solution (5% milk in Trisbuffered saline containing 0.1% Tween-20) and incubated overnight at 4° C. using monoclonal rabbit anti-phospho-Akt (Ser473) antibody (Cat No., 9271) and monoclonal rabbit anti-Akt (pan) antibody (cat No., 4691) at 1:500 in blocking solution. All antibodies were purchased from Cell Signaling Technology (Danvers, USA). The membrane was incubated for 1 hour with goat anti-rabbit IgG (H+L)-HRP conjugated secondary antibody at 1:10000 (Cat No. 1706515; Bio-rad, Hercules, USA) after washing. Enzyme-linked chemiluminescence was performed to detect hybridized protein bands.

MCF-10A cells = assay: Cytotoxicity screening, MCF-10A; format: cell-based; details: at 10 μM
[4] = system: bacterial-infected J774A.1 macrophages; assay: TNF-α secretion by bacterial-infected macrophages; format: cell-based
[5] = Preliminary pharmacokinetic study (plasma stability); format: in vitro ADME

T1 sequence (P61073 whole entry): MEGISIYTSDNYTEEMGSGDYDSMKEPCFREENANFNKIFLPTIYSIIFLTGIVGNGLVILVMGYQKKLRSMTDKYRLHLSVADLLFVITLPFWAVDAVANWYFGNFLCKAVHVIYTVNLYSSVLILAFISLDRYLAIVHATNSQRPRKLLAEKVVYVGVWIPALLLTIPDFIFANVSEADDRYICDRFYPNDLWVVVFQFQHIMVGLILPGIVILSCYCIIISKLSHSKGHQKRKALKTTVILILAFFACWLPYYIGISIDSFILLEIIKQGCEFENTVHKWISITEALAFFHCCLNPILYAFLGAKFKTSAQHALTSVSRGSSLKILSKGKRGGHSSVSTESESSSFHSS

| Compound | potency compared with AMD3100 (CXCR4) | EC (CXCR4) | Matrigel invasion inhibition compared with AMD3100 (MDA-MB-231 cells [1]) | melting point | also measured |
| --- | --- | --- | --- | --- | --- |
| O=C(NCc1ccc(CNS(=O)(=O)c2ccccc2)cc1)c1ccc(F)cc1 [IIIj, 4-Fluoro-N-(4-(phenylsulfonamidomethyl)benzyl)benzamide] | 1000 fold | 1 nM |  |  |  |
| Cc1nnsc1C(=O)NCc1ccc(CNS(=O)(=O)c2ccc(F)c(F)c2)cc1 [Im, N-(4-((3,4-difluorophenylsulfonamido)methyl)benzyl)-4-methyl-1,2,3-thiadiazole-5-carboxamide] |  |  | comparable inhibition to the reference drug AMD3100 |  | inflammation suppression (mouse ear edema) (xylene-induced ear edema): 54%; histological analysis of ear (xylene-induced ear edema): significantly attenuated the ear damage and decreased the number of inflammatory cells |
| Cc1ccc(S(=O)(=O)NCc2ccc(CNC(=O)c3ccc(F)cc3)cc2)cc1 [IIj, 4-Fluoro-N-(4-((4-methylphenylsulfonamido)methyl)benzyl)benzamide] |  |  |  | 187 to 189 °C | inhibition of proliferation (cytotoxicity) (MDA-MB-231 cells [2]): did not inhibit the proliferation; CXCR4/CXCL12-mediated phosphorylation of Akt [3]: blocked the CXCR4/CXCL12-mediated phosphorylation of Akt in a dose-dependent manner; inhibition of proliferation (cytotoxicity) (MCF-10A cells): did not inhibit the proliferation; attenuation of the amount of TNF-α [4]: 59%; inflammation suppression (mouse ear edema) (xylene-induced ear edema): 75%; histological analysis of ear (xylene-induced ear edema): attenuated ear edema and damage substantially; plasma stability [5]: favourable plasma stability |
| O=C(NCc1ccc(CNS(=O)(=O)c2ccccc2)cc1)c1ccccc1 [IIIa, N-(4-(phenylsulfonamidomethyl)benzyl)benzamide] | 1000 fold | 1 nM |  | 139 to 141 °C | inflammation suppression (mouse ear edema) (xylene-induced ear edema): 62% |
| Cc1cc(C(=O)NCc2ccc(CNS(=O)(=O)c3ccc4c(c3)CCO4)cc2)n(C)n1 [If, N-(4-((2,3-dihydrobenzofuran-5-sulfonamido)methyl)benzyl)-1,3-dimethyl-1H-pyrazole-5-carboxamide] |  |  | comparable inhibition to the reference drug AMD3100 | 176 to 178 °C |  |
| O=C(NCc1ccc(CNS(=O)(=O)c2ccc3c(c2)CCO3)cc1)c1cccnc1 [Ia, N-(4-((2,3-dihydrobenzofuran-5-sulfonamido)methyl)benzyl)nicotinamide] |  |  | better activity than AMD3100 | 137 to 139 °C |  |
| COc1ccccc1C(=O)NCc1ccc(CNS(=O)(=O)c2ccccc2)cc1 [IIIe, 2-Methoxy-N-(4-(phenylsulfonamidomethyl)benzyl)benzamide] | 1000 fold | 1 nM |  | 123 to 125 °C |  |
| O=C(NCc1ccc(CNS(=O)(=O)c2ccc3c(c2)CCO3)cc1)c1scc2c1OCCO2 [Ik] |  |  | better activity than AMD3100 |  |  |
| O=C(NCc1ccc(CNS(=O)(=O)c2ccc(F)cc2F)cc1)c1cncnc1 [Ig, N-(4-((2,4-difluorophenylsulfonamido)methyl)benzyl)pyrimidine-5-carboxamide] |  |  | better activity than AMD3100 |  | CXCR4/CXCL12-mediated phosphorylation of Akt [3]: blocked the phosphorylation of Akt; also recorded: blocked the CXCR4/CXCL12-mediated Akt phosphorylation in a dose-dependent manner; TNF-α secretion ([4]; result in words): significantly suppressed; inflammation suppression (mouse ear edema) (xylene-induced ear edema): 56%; histological analysis of ear (xylene-induced ear edema): significantly attenuated the ear damage and decreased the number of inflammatory cells |
| Fluoro-N-(4-(phenylsulfonamidomethyl)benzyl)benzamide [IIIi] | 1000 fold | 1 nM |  |  |  |
| O=C(NCc1ccc(CNS(=O)(=O)c2ccccc2)cc1)c1ccc(CNc2ncccn2)cc1 [N-(4-(phenylsulfonamidomethyl)benzyl)-4-((pyrimidin-2-ylamino)methyl)benzamide] |  | 1 nM |  |  |  |
| O=C(NCc1ccc(CNS(=O)(=O)c2ccc3c(c2)CCO3)cc1)c1cc2ccccn2n1 [Ib, N-(4-((2,3-dihydrobenzofuran-5-sulfonamido)methyl)benzyl)pyrazolo[1,5-a]pyridine-2-carboxamide] |  |  |  | 180 to 182 °C |  |
| Cc1ccccc1C(=O)NCc1ccc(CNS(=O)(=O)c2ccccc2)cc1 [IIIb, 2-Methyl-N-(4-(phenylsulfonamidomethyl)benzyl)benzamide] | 1000 fold | 1 nM |  | 129 to 131 °C |  |
| Cc1ccc(S(=O)(=O)NCc2ccc(CNC(=O)c3ccc(Cl)cc3)cc2)cc1 [IIn, 4-Chloro-N-(4-((4-methylphenylsulfonamido)methyl)benzyl)benzamide] |  |  |  | 201 to 203 °C |  |
| O=C(NCc1ccc(CNS(=O)(=O)c2ccccc2)cc1)c1cccnc1 [IIIq, N-(4-(phenylsulfonamidomethyl)benzyl)nicotinamide] |  |  |  | 109 to 111 °C |  |
